pIC50: −log10 of the molar value.
Each compound was assayed against T1, Endothelial lipase (EL) (Homo sapiens, UniProt Q9Y5X9) (assay: Endothelial lipase (EL) enzymatic assay with fluorescent substrate A10070 in DMPG vesicles). Conditions: conditioned media from HT-1080 cells overexpressing endogenous EL; 20 min preincubation at 37° C.; read-out: EL IC50.
T1 construct: HT-1080 cells, which were transformed by RAGE technology (Athersys) to overexpress endogenous EL; endogenous in cells; conditioned medium used as the enzyme source
T1 sequence (Q9Y5X9 21-500): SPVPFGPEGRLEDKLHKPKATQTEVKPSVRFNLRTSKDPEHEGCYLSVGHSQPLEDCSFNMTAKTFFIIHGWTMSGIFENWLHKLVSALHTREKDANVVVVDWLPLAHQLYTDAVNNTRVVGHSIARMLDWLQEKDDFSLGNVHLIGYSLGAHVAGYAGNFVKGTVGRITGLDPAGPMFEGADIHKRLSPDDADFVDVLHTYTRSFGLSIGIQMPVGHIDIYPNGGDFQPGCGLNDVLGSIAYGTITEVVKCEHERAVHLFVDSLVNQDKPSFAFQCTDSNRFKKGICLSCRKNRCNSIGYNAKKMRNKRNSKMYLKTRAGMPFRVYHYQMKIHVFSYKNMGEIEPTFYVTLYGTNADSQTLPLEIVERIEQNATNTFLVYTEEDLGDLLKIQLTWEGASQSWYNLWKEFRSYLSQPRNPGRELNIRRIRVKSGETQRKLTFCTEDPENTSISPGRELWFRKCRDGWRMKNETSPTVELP
Assay type: biochemical
In short: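 The enzyme source was conditioned medium from HT-1080 cells engineered to overexpress endogenous EL. It was preincubated with compound for 20 min at 37 °C in 50 mM HEPES pH 8.0, 50 mM NaCl, 1 mM CaCl2. Reactions started with DMPG vesicles carrying FRET substrate A10070 (mole fraction 0.05). The rate was taken from the linear slope of fluorescence (ex 488/em 530 nm) over 10 min.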

pIC50	SMILES
6.02	Nc1c(C(=O)NC2CCN(c3nc(Br)nn3Cc3ccccc3)C2)[nH]c(=O)[nH]c1=O (centres unmarked) [Example 187, 5-amino-N-(1-(1-benzyl-3-bromo-1H 1,2,4-triazol-5-yl)pyrrolidin-3-yl)-2,6 dioxo-1,2,3,6-tetrahydropyrimidine-4 carboxamide]
7.74	Nc1c(C(=O)N[C@@H]2CCCc3ccc(C(F)(F)F)cc32)[nH]c(=O)[nH]c1=O [Example 53, (R)-5-amino-2,6-dioxo-N-(7-(trifluoromethyl)-1,2,3,4-tetrahydronaphthalen-1-yl)-1,2,3,6-tetrahydropyrimidine-4-carboxamide]

Same assay, conditions: range observed in the EL assay; read-out: EL IC50 values

SMILES	pIC50
CC(C)(C)OC(=O)N1CCC(NC(=O)c2[nH]c(=O)[nH]c(=O)c2N)c2ccccc21 (centres unmarked) [Example 16, tert-butyl 4-(5-amino-2,6-dioxo-1,2,3,6-tetrahydropyrimidine-4-carboxamido)-3,4-dihydroquinoline-1(2H)-carboxylate]	≥ 5.00
COC(=O)[C@@H]1C[C@H](NC(=O)c2[nH]c(=O)[nH]c(=O)c2N)c2ccccc21 [Example 12, (1R,3S)-methyl 3-(5-amino-2,6-dioxo-1,2,3,6-tetrahydropyrimidine-4-carboxamido)-2,3-dihydro-1H-indene-1-carboxylate]	≥ 5.00
Nc1c(C(=O)N[C@@H]2CCN(c3ccccc3)C2)[nH]c(=O)[nH]c1=O [Example 191, (R)-5-amino-2,6-dioxo-N-(1-phenylpyrrolidin-3-yl)-1,2,3,6-tetrahydropyrimidine-4-carboxamide]	≥ 5.00
O=C(N[C@H]1CC[C@@H](c2ccccc2)CC1)c1[nH]c(=O)n(CCCc2ccccc2)c(=O)c1O [Example 270, 5-Hydroxy-2,6-dioxo-N-(cis-4-phenylcyclohexyl)-1-(3-phenylpropyl)-1,2,3,6-tetrahydropyrimidine-4-carboxamide]	≥ 5.00
CC(C)CCNc1c(C(=O)N[C@H]2CC[C@@H](c3ccccc3)CC2)[nH]c(=O)[nH]c1=O [Example 210, 5-(isopentylamino)-2,6-dioxo-N-(cis-4-phenylcyclohexyl)-1,2,3,6-tetrahydropyrimidine-4-carboxamide]	≥ 5.00
O=C(N[C@@H]1CC[C@@H](c2ccc(Cl)c(Cl)c2)C1)c1[nH]c(=O)[nH]c(=O)c1O [Example 251, N-((1R,3R)-3-(3,4-dichlorophenyl)cyclopentyl)-5-hydroxy-2,6-dioxo-1,2,3,6-tetrahydropyrimidine-4-carboxamide]	≥ 5.00
Cn1nc(C(F)(F)F)cc1-c1ccc([C@H]2CC[C@@H](NC(=O)c3[nH]c(=O)[nH]c(=O)c3N)C2)cc1 [Example 173, 5-amino-N-((1R,3S)-3-(4-(1-methyl-3-(trifluoromethyl)-1H-pyrazol-5-yl)phenyl)cyclopentyl)-2,6-dioxo-1,2,3,6-tetrahydropyrimidine-4-carboxamide]	≥ 5.00
Nc1c(C(=O)NC2CCOc3ccccc32)[nH]c(=O)[nH]c1=O (single isomer, unassigned; enantiomer b) [Example 197, 5-amino-N-(chroman-4-yl)-2,6-dioxo-1,2,3,6-tetrahydropyrimidine-4-carboxamide (Enantiomer B)]	≥ 5.00
Nc1c(C(=O)NC2CCN(c3nc(Br)nn3Cc3ccccc3)C2)[nH]c(=O)[nH]c1=O (centres unmarked) [Example 187, 5-amino-N-(1-(1-benzyl-3-bromo-1H 1,2,4-triazol-5-yl)pyrrolidin-3-yl)-2,6 dioxo-1,2,3,6-tetrahydropyrimidine-4 carboxamide]	≥ 5.00
CC(C)(C)C1CCC(NC(=O)c2[nH]c(=O)[nH]c(=O)c2N)CC1 (centres unmarked) [Example 44, 5-amino-N-(4-tert-butylcyclohexyl)-2,6-dioxo-1,2,3,6-tetrahydropyrimidine-4-carboxamide]	≥ 5.00

Other lines, results leading:

pIC50	SMILES
≥ 5.00	COc1cccc2c1CCC[C@H]2NC(=O)c1[nH]c(=O)[nH]c(=O)c1O [Example 261, (R)-5-hydroxy-N-(5-methoxy-1,2,3,4-tetrahydronaphthalen-1-yl)-2,6-dioxo-1,2,3,6-tetrahydropyrimidine-4-carboxamide]
≥ 5.00	O=C(N[C@H]1CC[C@@H](c2ccccc2)CC1)c1[nH]c(=O)[nH]c(=O)c1NCCc1ccccc1Cl [Example 221, 5-(2-chlorophenethylamino)-2,6-dioxo-N-(cis-4-phenylcyclohexyl)-1,2,3,6-tetrahydropyrimidine-4-carboxamide]
≥ 5.00	Nc1c(C(=O)N[C@H]2CC[C@@H](c3ccc(-c4ccccc4CO)cc3)C2)[nH]c(=O)[nH]c1=O [Example 174, 5-amino-N-((1S,3R)-3-(2′-(hydroxymethyl)biphenyl-4-yl)cyclopentyl)-2,6-dioxo-1,2,3,6-tetrahydropyrimidine-4-carboxamide]
≥ 5.00	CCOC(=O)[C@H]1CCC[C@H]1NC(=O)c1[nH]c(=O)[nH]c(=O)c1N [Example 61, (1S,2R)-ethyl 2-(5-amino-2,6-dioxo-1,2,3,6-tetrahydropyrimidine-4-carboxamido) cyclopentanecarboxylate]
≥ 5.00	O=C(N[C@@H]1CC[C@@H](c2ccccc2)C1)c1[nH]c(=O)[nH]c(=O)c1O [Example 272, 5-hydroxy-2,6-dioxo-N-((1R,3R)-3-phenylcyclopentyl)-1,2,3,6-tetrahydropyrimidine-4-carboxamide]
≥ 5.00	COc1cccc2c1C(NC(=O)c1[nH]c(=O)[nH]c(=O)c1N)CCC2 (single isomer, unassigned; enantiomer a) [Example 201, 5-amino-N-(8-methoxy-1,2,3,4-tetrahydronaphthalen-1-yl)-2,6-dioxo 1,2,3,6-tetrahydropyrimidine-4-carboxamide (Enantiomer A)]
≥ 5.00	Nc1c(C(=O)N[C@@H]2CCCc3c(OCc4ccccc4)cccc32)[nH]c(=O)[nH]c1=O [Example 82, (R)-5-amino-N-(5-(benzyloxy)-1,2,3,4-tetrahydronaphthalen-1-yl)-2,6-dioxo-1,2,3,6-tetrahydropyrimidine-4-carboxamide]
≥ 5.00	Nc1c(C(=O)N[C@H]2CC[C@@H](c3ccccc3)CC2)[nH]c(=O)[nH]c1=O [Example 3, 5-amino-2,6-dioxo-N-(cis-4-phenylcyclohexyl)-1,2,3,6-tetrahydropyrimidine-4-carboxamide]
≥ 5.00	Cc1c(-c2ccc([C@H]3CC[C@@H](NC(=O)c4[nH]c(=O)[nH]c(=O)c4N)C3)cc2)cnn1-c1ccccc1 [Example 165, 5-amino-N-((1R,3S)-3-(4-(5-methyl-1-phenyl-1H-pyrazol-4-yl)phenyl)cyclopentyl)-2,6-dioxo-1,2,3,6-tetrahydropyrimidine-4-carboxamide]
≥ 5.00	O=C(N[C@H]1CC[C@@H](c2ccccc2)CC1)c1[nH]c(=O)[nH]c(=O)c1NCCO [Example 217, 5-(2-hydroxyethylamino)-2,6-dioxo-N-(cis-4-phenylcyclohexyl)-1,2,3,6-tetrahydropyrimidine-4-carboxamide]
≥ 5.00	Nc1c(C(=O)N[C@@H]2CCCc3ccc(C(F)(F)F)cc32)[nH]c(=O)[nH]c1=O [Example 53, (R)-5-amino-2,6-dioxo-N-(7-(trifluoromethyl)-1,2,3,4-tetrahydronaphthalen-1-yl)-1,2,3,6-tetrahydropyrimidine-4-carboxamide]
≥ 5.00	O=C(N[C@H]1CC[C@@H](c2ccccc2)C1)c1[nH]c(=O)[nH]c(=O)c1O [Example 273, 5-hydroxy-2,6-dioxo-N-((1S,3R)-3-phenylcyclopentyl)-1,2,3,6-tetrahydropyrimidine-4-carboxamide]
≥ 5.00	COc1cc(C)c(OC)c2c1CC(NC(=O)c1[nH]c(=O)[nH]c(=O)c1N)CC2 (centres unmarked) [Example 109, 5-amino-N-(5,8-dimethoxy-6-methyl-1,2,3,4-tetrahydronaphthalen-2-yl)-2,6-dioxo-1,2,3,6-tetrahydropyrimidine-4-carboxamide]
≥ 5.00	CO[C@]1(c2ccc(F)cc2)CC[C@@H](NC(=O)c2[nH]c(=O)[nH]c(=O)c2N)CC1 [Example 4, 5-amino-N-(cis-4-(4-fluorophenyl)-4-methoxycyclohexyl)-2,6-dioxo-1,2,3,6-tetrahydropyrimidine-4-carboxamide]
